Data published in patent publication US7514432B2, “Compounds and methods of treating cell proliferative diseases, retinopathies and arthritis” (Exonhit Therapeutics SA, priority 2003, dated 2009).

What was measured:
[1] = system: HMEC1; experiment: Cell viability assay (MTT), HMEC1; assay type: cell-based, Human; conditions: MTT, 10% FBS, 6-day treatment, 1% DMSO
Experimental: (§1) Table 12: 6-day cell viability assay (MTT) in the presence of 10% Fetal Bovine Serum and 1% DMSO, in HMEC1, HCT116, MDA-MB-231, MCF7 and NIH3T3 cell lines. 3 10^3 to 15 10^3 cells were seeded in 48-well plates in growth medium containing 10% FBS, with or without various concentrations of test compounds. Cell cultures were fed every 3 days with the appropriate media. Cell viability was determined on day 6. Data were analyzed and IC50s were calculated from dose-response curves using GraphPad Prism. Results summarized in the tables are mean±SEM of 1 to 8 independent experiments.
(§2) In order to determine a compound's effect on cell viability, microculture tetrazolium assays (MTT) were performed as described by Carmichael et al. (1996) with modifications. Four human tumoral cell lines, namely HCT116 colon adenocarcinoma, H460 lung carcinoma, MCF-7 and MDA-MB-231 breast carcinoma cell lines, DLD1 colorectal adenocarcinoma, HeLa adenocarcinoma, HepG2 hepatocellular carcinoma. 3 immortalized but non tumorigenic cell lines, namely NIH3T3 mouse fibroblasts (American Type Culture Collection) and primary hepatocytes (Biopredic international), cultured according to their recommendations together with Human Microvasculature Endothelial Cell line HMEC1 (National Center for Infectious Diseases). Briefly, cells were seeded in 48-well plates 24 hours before drug addition. Cells were treated with 0 to 200 μM (11 concentrations) of compound solubilized in DMSO, adjusting the final concentration of DMSO to 1% in the well. 16 hours, and three or six days after treatment, 0.5 mg/ml MTT (Sigma) was added to the medium and cells were incubated for 1-5 hours at 37° C. before solubilization of formazan crystals in 100% DMSO. Absorbance was measured using a spectrophotometer at a wavelength of 550 nm. Data was analyzed using the GraphPad Prism software (GraphPad Software, Inc.), and IC50 (dose leading to 50% cell death) was calculated from the dose-response curves.

[2] = system: HCT116; experiment: Cell viability assay (MTT), HCT116; assay type: cell-based, human; conditions: 10% FBS, 6-day treatment, 1% DMSO
Experimental: as §1
(§3) Table 13: 6-day cell viability assay (MTT) in the presence of 0.5% Fetal Bovine Serum and 1% DMSO, in HCT116 and MDA-MB-231 cell lines. 7.5 10^4 to 15 10^4 cells were seeded in 48-well plates in growth medium containing 10% FBS, with or without various concentrations of test compounds. Cell cultures were fed every 3 days with the appropriate media. Cell viability was determined on day 6. Data were analyzed and IC50s were calculated from dose-response curves using GraphPad Prism. Results summarized in the tables are mean±SEM of 1 to 2 independent experiments.
(§4) Table 14: 3-day cell viability assay (MTT) in the presence of 10% Fetal Bovine Serum and 1% DMSO, in DLD1, HCT116, MDA-MB-231, MCF7 and HeLa cells. 7.5 10^3 to 1.5 10^4 cells were seeded in 48-well plates in growth medium containing 10% FBS, with or without various concentrations of test compounds. Data were analyzed and IC50s were calculated from dose-response curves using GraphPad Prism. Results summarized in the tables are mean±SEM of 1 to 7 independent experiments.
(§5) Table 15: 16-hour cell viability assay (MTT) in the presence of 10% Fetal Bovine Serum and 1% DMSO, in HCT116, MDA-MB-231, NIH3T3, HepG2 and primary hepatocytes. 5 10^4 to 10 10^4 cells were seeded in 48-well plates in growth medium containing 10% FBS, with or without various concentrations of test compounds. Data were analyzed and IC50s were calculated from dose-reponse curves using GraphPad Prism. Results summarized in the tables are mean±SEM of 1 to 2 independent experiments.
as §2

[3] = system: MDA-MB-231; experiment: Cell viability assay (MTT), MDA-MB-231; assay type: cell-based, human; conditions: Homo sapiens, MDA-MB-231, 144 h, 10% FBS, 6-day treatment, 1% DMSO, read-out: IC50 μM, MDA-MB-231
Experimental: as §1, §3, §4, §5, §2

[4] = system: NIH 3T3; experiment: Cell viability assay (MTT), NIH 3T3; assay type: cell-based, mouse; conditions: Mus musculus, NIH3T3, 144 h, 10% FBS, 6-day treatment, 1% DMSO
Experimental: as §1, §5, §2

SMILES | IC50 ([1]; Homo sapiens, HMEC-1, 144 h) [µM] | IC50 ([2]; Homo sapiens, HCT-116, 144 h) [µM] | melting point | IC50 [1] [µM] | IC50 [2] [µM] | IC50 [3] [µM] | IC50 [4] [µM]
Cl.Cl.Cl.O=c1cc(CN2CCNCC2)occ1OCCCCCOc1ccnc2cc(Cl)ccc12 [EHT 0872, 5-(5-(7-Chloroquinolin-4-yloxy)pentyloxy)-2-((piperazin-1-yl)methyl)-4H-pyran-4-one trihydrochloride] | 28.4 | 9.3 | 164.7 °C | – | – | – | –
O=c1cc(COC2CCCCO2)occ1OCCCCCCCCSc1ccnc2cc(C(F)(F)F)ccc12 (stereo not drawn) [EHT 1006, 5-(8-(7-(Trifluoromethyl)quinolin-4-ylthio)octyloxy)-2-((tetrahydro-2H-pyran-2-yloxy)methyl)-4H-pyran-4-one] | < 10 | – | 66.1 °C | 9.5 | – | – | –
O=c1cc(CCl)occ1OCCCCCSc1ccnc2cc(C(F)(F)F)ccc12 [EHT 1494, 2-Chloromethyl-5-[5-(7-trifluoromethyl-quinolin-4-ylsulfanyl)-pentyloxy]-4H-pyran-4-one] | – | – | 38.2 °C | – | – | – | –
COCOCc1cc(=O)c(OCCCCCSc2ccnc3cc(C(F)(F)F)ccc23)co1 [EHT 2168, 2-Methoxymethoxymethyl-5-[5-(7-trifluoromethyl-quinolin-4-ylsulfanyl)-pentyloxy]-4H-pyran-4-one] | 19.3 | 6 | 122.1 °C (dec.) | – | – | – | –
CC(C)(C)OC(=O)N1CCN(Cc2cc(=O)c(OCCCCCOc3ccnc4cc(Cl)ccc34)co2)CC1 [EHT 2580, tert-Butyl 4-((5-(5-(7-chloroquinolin-4-yloxy)pentyloxy)-4-oxo-4H-pyran-2-yl)methyl)piperazine-1-carboxylate] | – | – | 130.2 °C | – | – | – | –
CC(=O)N1CCN(Cc2cc(=O)c(OCCCCCSc3ccnc4cc(C(F)(F)F)ccc34)co2)CC1 [EHT 3980, 5-(5-(7-(Trifluoromethyl)quinolin-4-ylthio)pentyloxy)-2-((4-acetylpiperazin-1-yl)methyl)-4H-pyran-4-one] | 38.5 | < 4 | 99.5 °C | – | 2.3 | – | –
CN1CCN(Cc2cc(=O)c(OCCCCCOc3ncnc4ccccc34)co2)CC1 [EHT 4063, 5-(5-(Quinazolin-4-yloxy)pentyloxy)-2-((4-methylpiperazin-1-yl)methyl)-4H-pyran-4-one] | ~200 | ~200 | 78.2 °C | – | – | – | –
O=c1cc(COC2CCCCO2)occ1OCCCCSc1ccnc2cc(C(F)(F)F)ccc12 (stereo not drawn) [EHT 4745, 2-(Tetrahydro-pyran-2-yloxymethyl)-5-[4-(7-trifluoromethyl-quinolin-4-ylsulfanyl)-butoxy]-4H-pyran-4-one] | < 10 | 4.1 | 97.3 °C (dec.) | 9.8 | – | – | –
O=c1cc(CO)occ1OCCCCCSc1ccnc2cc(C(F)(F)F)ccc12 [EHT 5909, 2-Hydroxymethyl-5-[5-(7-trifluoromethyl-quinolin-4-ylsulfanyl)-pentyloxy]-4H-pyran-4-one] | – | – | 133.2 °C (dec.) | – | – | – | –
O=C(CCCCOc1coc(CN2CCOCC2)cc1=O)Nc1ccnc2cc(C(F)(F)F)ccc12 [EHT 6037, 5-(6-(Morpholinomethyl)-4-oxo-4H-pyran-3-yloxy)-N-(7-(trifluoromethyl)quinolin-4-yl)pentanamide] | – | – | 126.8 °C | – | – | – | –
O=c1cc(COC2CCCCO2)occ1OCCCCCCSc1ccnc2cc(C(F)(F)F)ccc12 (stereo not drawn) [EHT 6271, 2-(Tetrahydro-pyran-2-yloxymethyl)-5-[6-(7-trifluoromethyl-quinolin-4-ylsulfanyl)-hexyloxy]-4H-pyran-4-one] | < 10 | – | 67.8 °C | 9 | – | – | –
O=c1cc(CN2CCOCC2)occ1OCCOc1ccnc2cc(C(F)(F)F)ccc12 [EHT 6892, 5-(2-(7-(trifluoromethyl)quinolin-4-yloxy)ethoxy)-2-(morpholinomethyl)-4H-pyran-4-one] | – | 101 | 125.6 °C | – | – | – | –
CCN(CC)Cc1cc(=O)c(OCCCCCSc2ccnc3cc(C(F)(F)F)ccc23)co1 [EHT 7370, 2-((Diethylamino)methyl)-5-(5-(7-(trifluoromethyl)quinolin-4-ylthio)pentyloxy)-4H-pyran-4-one] | 12.1 | 4.4 | 71.2 °C | – | – | – | –
CS(=O)(=O)N1CCN(Cc2cc(=O)c(OCCCCCSc3ccnc4cc(C(F)(F)F)ccc34)co2)CC1 [EHT 8366, 5-(5-(7-(Trifluoromethyl)quinolin-4-ylthio)pentyloxy)-2-((4-Methylsulfonylpiperazin-1-yl)methyl)-4H-pyran-4-one] | – | – | 66.3 °C | – | – | – | –
O=c1cc(CF)occ1OCCCCCSc1ccnc2cc(C(F)(F)F)ccc12 [EHT 8817, 5-(5-(7-(Trifluoromethyl)quinolin-4-ylthio)pentyloxy)-2-(fluoromethyl)-4H-pyran-4-one] | 41 | 12.1 | 107 °C | – | – | – | –
O=c1cc(CN2CCOCC2)occ1OCc1ccccc1CSc1ccnc2cc(C(F)(F)F)ccc12 [EHT 9069, 5-((2-((7-(Trifluoromethyl)quinolin-4-ylthio)methyl)phenyl)methoxy)-2-(morpholinomethyl)-4H-pyran-4-one] | 34.8 | 15.5 | 71.6 °C | – | – | 13.5 | 41.3
O=c1cc(CN2CCCCC2)occ1OCCCCCSc1ccnc2cc(C(F)(F)F)ccc12 [EHT 9317, 5-(5-(7-(Trifluoromethyl)quinolin-4-ylthio)pentyloxy)-2-((piperidin-1-yl)methyl)-4H-pyran-4-one] | 11.7 | < 4 | 108.9 °C | – | 2.3 | – | –
